# Laboratory results from patent US11834460B2, “Imide-based modulators of proteolysis and associated methods of use” (YALE UNIVERSITY, priority 2018, dated 2023).
# Test system: c-Myc
# Experiment: c-Myc ELISA assay protocol in 22RV-1 cells
# Assay type: cell-based, human
# Conditions: 18 h, read-out: cMyc IC50
# Method: In each bioassay, cells were treated with varying amounts of compounds encompassed by the present disclosure, as shown in Table 1. The degradation of the following proteins were evaluated in this study: TANK-binding kinase 1 (TBK1), estrogen receptor α (ERα), bromodomain-containing protein 4 (BRD4), androgen receptor (AR), and c-Myc.
# 5. c-Myc ELISA Assay Protocol
# 22RV-1 cells were purchased from ATCC and cultured in RPMI+10% FBS media. Cells were harvested using trypsin (Gibco #25200-114), counted and seeded at 30,000 cells/well at a volume of 75 μL/well in RPMI +10% FBS media in 96-well plates. The cells were dosed with compounds diluted in 0.1% DMSO, incubated for 18 h then washed and lysed in 50 uL RIPA buffer (50 mM Tris pH8, 150 mM NaCl, 1% Tx-100, 0.1% SDS, 0.5% sodium deoxycholate) supplemented with protease and phosphatase inhibitors. The lysates were clarified at 4000 rpm at 4° C. for 10 minutes then aliquots were added into a 96-well ELISA plate of Novex Human c-myc ELISA kit from Life Technologies Catalog #KHO2041. 50 ul of c-Myc Detection antibody was added into every well, the plates incubated at room temperature for 3 hrs, then washed with ELISA wash buffer. 100 uL of the anti-rabbit IgG-HRP secondary antibody was added to each well and incubated at room temperature for 30 minutes. The plates were washed with ELISA wash buffer, 100 μL TMB added to each well, and then monitored every 5 minutes for a color change. 100 μL of stop solution is added and the plates read at 450 nm.
row,Compound,IC50
1,"Cc1sc2c(c1C)C(c1ccc(Cl)cc1)=N[C@@H](CC(=O)NCCCNc1cccc3c1CN(C1CCC(=O)NC1=O)C3=O)c1nnc(C)n1-2 (stereo partly drawn) [Compound 46, 2-[(9S)-7-(4-chlorophenyl)-4,5,13-trimethyl-3-thia-1,8,11,12-tetraazatricyclo [8.3.0.0^2,^6]trideca-2(6),4,7,10,12-pentaen-9-yl]-N-(3-{[2-(2,6-dioxopiperidin-3-yl)-1-oxo-2,3-dihydro-1H-isoindol-4-yl]amino}propyl) acetamide]",> 50 nM
2,"Cc1sc2c(c1C)C(c1ccc(Cl)cc1)=N[C@@H](CC(=O)NCCCCNc1cccc3c1CN(C1CCC(=O)NC1=O)C3=O)c1nnc(C)n1-2 (stereo partly drawn) [Compound 47, 2-[(9S)-7-(4-chlorophenyl)-4,5,13-trimethyl-3-thia-1,8,11,12-tetraazatricyclo [8.3.0.0^2,^6]trideca-2(6),4,7,10,12-pentaen-9-yl]-N-(4-{[2-(2,6-dioxopiperidin-3-yl)-1-oxo-2,3-dihydro-1H-isoindol-4-yl]amino}butyl) acetamide]",> 50 nM
3,"Cc1sc2c(c1C)C(c1ccc(Cl)cc1)=N[C@@H](CC(=O)N[C@@H](C)c1ccc(OCCOCCNc3cccc4c3C(=O)N(C3CCC(=O)NC3=O)C4=O)c(F)c1)c1nnc(C)n1-2 (stereo partly drawn) [Compound 48, 2-[(9S)-7-(4-chlorophenyl)-4,5,13-trimethyl-3-thia-1,8,11,12-tetraazatricyclo [8.3.0.0^2,^6]trideca-2(6),4,7,10,12-pentaen-9-yl]-N-[(1S)-1-{4-[2-(2-{[2-(2,6-dioxopiperidin-3-yl)-1,3-dioxo-2,3-dihydro-1H-isoindol-4-yl]amino}ethoxy)ethoxy]-3-fluorophenyl}ethyl]acetamide]",< 50 nM
4,"Cc1sc2c(c1C)C(c1ccc(Cl)cc1)=N[C@@H](CC(=O)Nc1ccc(OCCOCCOCCOCCNc3cccc4c3C(=O)N(C3(C)CCC(=O)NC3=O)C4=O)cc1)c1nnc(C)n1-2 (stereo partly drawn) [Compound 49, 2-[(9S)-7-(4-chlorophenyl)-4,5,13-trimethyl-3-thia-1,8,11,12-tetraazatricyclo [8.3.0.0^2,^6]trideca-2(6),4,7,10,12-pentaen-9-yl]-N-[4-({1-[2-(3-methyl-2,6-dioxopiperidin-3-yl)-1,3-dioxo-2,3-dihydro-1H-isoindol-4-yl]-4,7,10-trioxa-1-azadodecan-12-yl}oxy)phenyl] acetamide]",> 50 nM
5,"Cc1sc2c(c1C)C(c1ccc(Cl)cc1)=N[C@@H](CC(=O)Nc1ccc(OCCOCCOCCOCCNc3cccc4c3C(=O)N(C3CCC(=O)N(C)C3=O)C4=O)cc1)c1nnc(C)n1-2 (stereo partly drawn) [Compound 50, 2-[(9S)-7-(4-chlorophenyl)-4,5,13-trimethyl-3-thia-1,8,11,12-tetraazatricyclo [8.3.0.0^2,^6]trideca-2(6),4,7,10,12-pentaen-9-yl]-N-[4-({1-[2-(1-methyl-2,6-dioxopiperidin-3-yl)-1,3-dioxo-2,3-dihydro-1H-isoindol-4-yl]-4,7,10-trioxa-1-azadodecan-12-yl}oxy)phenyl] acetamide]",> 50 nM
6,"Cc1sc2c(c1C)C(c1ccc(Cl)cc1)=N[C@@H](CC(=O)N[C@H](C)c1cccc(OCCCNc3cccc4c3CN(C3CCC(=O)NC3=O)C4=O)c1)c1nnc(C)n1-2 (stereo partly drawn) [Compound 51, 2-[(9S)-7-(4-chlorophenyl)-4,5,13-trimethyl-3-thia-1,8,11,12-tetraazatricyclo [8.3.0.0^2,^6]trideca-2(6),4,7,10,12-pentaen-9-yl]-N-[(1R)-1-[3-(3-{[2-(2,6-dioxopiperidin-3-yl)-1-oxo-2,3-dihydro-1H-isoindol-4-yl]amino}propoxy)phenyl]ethyl] acetamide]",> 50 nM
7,"Cc1sc2c(c1C)C(c1ccc(Cl)cc1)=N[C@@H](CC(=O)N[C@H]1CCN(C(=O)c3ccc(NCCNc4cccc5c4C(=O)N(C4CCC(=O)NC4=O)C5=O)cc3)C1)c1nnc(C)n1-2 (stereo partly drawn) [Compound 52, 2-[(9S)-7-(4-chlorophenyl)-4,5,13-trimethyl-3-thia-1,8,11,12-tetraazatricyclo [8.3.0.0^2,^6]trideca-2(6),4,7,10,12-pentaen-9-yl]-N-[(3S)-1-{4-[(2-{[2-(2,6-dioxopiperidin-3-yl)-1,3-dioxo-2,3-dihydro-1H-isoindol-4-yl]amino}ethyl)amino]benzoyl}pyrrolidin-3-yl]acetamide]",> 50 nM
8,"Cc1sc2c(c1C)C(c1ccc(Cl)cc1)=N[C@@H](CC(=O)NCCOCCNc1cccc3nc(C)n(C4CCC(=O)NC4=O)c(=O)c13)c1nnc(C)n1-2 (stereo partly drawn) [Compound 53, 2-[(9S)-7-(4-chlorophenyl)-4,5,13-trimethyl-3-thia-1,8,11,12-tetraazatricyclo [8.3.0.0^2,^6]trideca-2(6),4,7,10,12-pentaen-9-yl]-N-[2-(2-{[3-(2,6-dioxopiperidin-3-yl)-2-methyl-4-oxo-3,4-dihydroquinazolin-5-yl]amino}ethoxy)ethyl]acetamide]",> 50 nM
9,"Cc1sc2c(c1C)C(c1ccc(Cl)cc1)=N[C@@H](CC(=O)NCCCOCCCNc1cccc3c1CN(C1CCC(=O)NC1=O)C3=O)c1nnc(C)n1-2 (stereo partly drawn) [Compound 54, 2-[(9S)-7-(4-chlorophenyl)-4,5,13-trimethyl-3-thia-1,8,11,12-tetraazatricyclo [8.3.0.0^2,^6]trideca-2(6),4,7,10,12-pentaen-9-yl]-N-[3-(3-{[2-(2,6-dioxopiperidin-3-yl)-1-oxo-2,3-dihydro-1H-isoindol-4-yl]amino}propoxy)propyl]acetamide]",< 50 nM
10,"Cc1sc2c(c1C)C(c1ccc(Cl)cc1)=N[C@@H](CC(=O)N[C@H]1CCN(C(=O)c3ccc(OCCNc4cccc5c4C(=O)N(C4CCC(=O)NC4=O)C5=O)cc3)C1)c1nnc(C)n1-2 (stereo partly drawn) [Compound 55, 2-[(9S)-7-(4-chlorophenyl)-4,5,13-trimethyl-3-thia-1,8,11,12-tetraazatricyclo [8.3.0.0^2,^6]trideca-2(6),4,7,10,12-pentaen-9-yl]-N-[(3S)-1-[4-(2-{[2-(2,6-dioxopiperidin-3-yl)-1,3-dioxo-2,3-dihydro-1H-isoindol-4-yl]amino}ethoxy)benzoyl]pyrrolidin-3-yl]acetamide]",< 50 nM

# Second part, the compound after the results:
row,IC50,Compound
1,< 50 nM,"Cc1sc2c(c1C)C(c1ccc(Cl)cc1)=N[C@@H](CC(=O)Nc1ccc(OCCOCCOCCNc3cccc4nc(C)n(C5CCC(=O)NC5=O)c(=O)c34)cc1)c1nnc(C)n1-2 (stereo partly drawn) [Compound 56, 2-[(9S)-7-(4-chlorophenyl)-4,5,13-trimethyl-3-thia-1,8,11,12-tetraazatricyclo [8.3.0.0^2,^6]trideca-2(6),4,7,10,12-pentaen-9-yl]-N-(4-{2-[2-(2-{[3-(2,6-dioxopiperidin-3-yl)-2-methyl-4-oxo-3,4-dihydroquinazolin-5-yl]amino}ethoxy)ethoxy]ethoxy}phenyl)acetamide]"
2,< 50 nM,"Cc1sc2c(c1C)C(c1ccc(Cl)cc1)=N[C@@H](CC(=O)NCCCCCNc1cccc3c1CN(C1CCC(=O)NC1=O)C3=O)c1nnc(C)n1-2 (stereo partly drawn) [Compound 57, 2-[(9S)-7-(4-chlorophenyl)-4,5,13-trimethyl-3-thia-1,8,11,12-tetraazatricyclo [8.3.0.0^2,^6]trideca-2(6),4,7,10,12-pentaen-9-yl]-N-(5-{[2-(2,6-dioxopiperidin-3-yl)-1-oxo-2,3-dihydro-1H-isoindol-4-yl]amino}pentyl) acetamide]"
3,> 50 nM,"Cc1sc2c(c1C)C(c1ccc(Cl)cc1)=N[C@@H](CC(=O)NCCCOCCCNc1cccc3nc(C)n(C4CCC(=O)NC4=O)c(=O)c13)c1nnc(C)n1-2 (stereo partly drawn) [Compound 58, 2-[(9S)-7-(4-chlorophenyl)-4,5,13-trimethyl-3-thia-1,8,11,12-tetraazatricyclo [8.3.0.0^2,^6]trideca-2(6),4,7,10,12-pentaen-9-yl]-N-[3-(3-{[3-(2,6-dioxopiperidin-3-yl)-2-methyl-4-oxo-3,4-dihydroquinazolin-5-yl]amino}propoxy)propyl]acetamide]"
4,> 50 nM,"Cc1sc2c(c1C)C(c1ccc(Cl)cc1)=N[C@@H](CC(=O)N[C@H]1CCN(C(=O)c3ccc(OCCNc4cccc5c4CN(C4CCC(=O)NC4=O)C5=O)cc3)C1)c1nnc(C)n1-2 (stereo partly drawn) [Compound 59, 2-[(9S)-7-(4-chlorophenyl)-4,5,13-trimethyl-3-thia-1,8,11,12-tetraazatricyclo [8.3.0.0^2,^6]trideca-2(6),4,7,10,12-pentaen-9-yl]-N-[(3S)-1-[4-(2-{[2-(2,6-dioxopiperidin-3-yl)-1-oxo-2,3-dihydro-1H-isoindol-4-yl]amino}ethoxy)benzoyl]pyrrolidin-3-yl]acetamide]"
5,> 50 nM,"Cc1sc2c(c1C)C(c1ccc(Cl)cc1)=N[C@@H](CC(=O)N[C@H](C)c1cccc(OCCNc3cccc4c3CN(C3CCC(=O)NC3=O)C4=O)c1)c1nnc(C)n1-2 (stereo partly drawn) [Compound 60, 2-[(9S)-7-(4-chlorophenyl)-4,5,13-trimethyl-3-thia-1,8,11,12-tetraazatricyclo [8.3.0.0^2,^6]trideca-2(6),4,7,10,12-pentaen-9-yl]-N-[(1R)-1-[3-(2-{[2-(2,6-dioxopiperidin-3-yl)-1-oxo-2,3-dihydro-1H-isoindol-4-yl]amino}ethoxy)phenyl]ethyl] acetamide]"
